{
  "source": "paper PMC3387161",
  "about": "“Small Molecules Targeted to a Non-Catalytic “RVxF” Binding Site of Protein Phosphatase-1 Inhibit HIV-1” (PLoS ONE, 2012)",
  "key": {"CEM cells": {"test_system": "CEM cells", "assay": "Toxicity by propidium iodide fluorescence in CEM-GFP cells", "format": "cell-based", "settings": "Homo sapiens, CCRF-CEM, 3 µM to 45 µM, 24 h"}, "recombinant PP1α": {"molecular_target": "T1, recombinant PP1α (Oryctolagus cuniculus, UniProt P62139)", "T1 construct": "purchased New England Biolabs, Ipswich, MA", "T1 sequence (P62139 whole entry)": "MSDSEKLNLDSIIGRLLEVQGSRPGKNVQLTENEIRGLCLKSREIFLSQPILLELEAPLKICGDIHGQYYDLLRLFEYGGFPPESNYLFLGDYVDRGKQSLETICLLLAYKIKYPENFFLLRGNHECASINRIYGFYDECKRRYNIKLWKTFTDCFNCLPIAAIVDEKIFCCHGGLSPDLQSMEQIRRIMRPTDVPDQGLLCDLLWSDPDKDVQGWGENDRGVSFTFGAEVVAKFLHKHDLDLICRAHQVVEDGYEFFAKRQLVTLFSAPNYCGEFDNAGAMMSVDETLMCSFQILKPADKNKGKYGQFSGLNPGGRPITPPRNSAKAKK", "assay": "Malachite green dephosphorylation of RVxF-containing hybrid pRb peptides by PP1α", "format": "biochemical", "from_the_text": "Here, we analyzed the effect of 1H4 on the binding of the Tat RVxF sequence to PP1 using hybrid PP1 substrates containing a substrate phosphopeptide linked to RVxF-containing sequences derived from Tat or NIPP1. As the substrate phosphopeptide, we used a retinoblastoma protein-derived HIPR(pS)[…] peptide (pRb) that is efficiently dephosphorylated by PP1 but not by the enzymatically-related PP2A [13]. The pRb peptide was linked to an extended RVxF-containing sequence derived from Tat ([…]) (pRb-Tat peptide) or the central domain of NIPP1 ([…]). To visualize the interaction between pRb-Tat and PP1 we built a computational model of the pRb-Tat peptide with PP1 complex (described in Materials and Methods). Based on this model, the pRb-Tat peptide is able to bind to the RVxF- accommodating groove of PP1 and, at the same time, to reach the active site of PP1 without any tension (Fig. 5A, green spheres; Fig. 5B, gray sticks). The pRb-Tat peptide was efficiently dephosphorylated by PP1 in vitro (Fig. 5C, V0 = 0.31 µM·min^-1). […] Addition of 1H4 at 3-fold molar excess (480 µM) over pRb-Tat (160 µM) inhibited pRb-Tat dephosphorylation and reduced the rate of dephosphorylation (Fig. 5C, V0 = 0.19 µM·min^−1) to the rate of pRb-Tat QACA dephosphorylation (Fig. 5C, V0 = 0.17 µM⋅min^−1). […] To further investigate the effect of 1H4 on the dephosphorylation of the pRb-Tat peptide, we analyzed the initial velocity versus pRb-Tat peptide substrate concentration plots. […] This was expected because the dephosphorylation site and the RVxF-containing sequence were fused into one hybrid substrate and 1H4 interferes with the binding of this substrate to PP1.\nFigure 5 1H4 compound competes with RVxF motif. A. Superimposition of pRb-Tat peptide on the complex of PP1 with Spinophilin. PP1 surface is colored after the atom types. The spinophilin peptide is shown as magenta ribbon and the pRb-Tat peptide as orange ribbon. The Val25 and Phe27 residues of pRb-Tat and the Ile449 and Phe 451 residues of Spinophilin are shown as sticks. The 2-(N-morpholino)-ethanesulfonic acid bound in the active site of PP1 is shown in green spheres. The phosphorylated Ser6 residue of pRb-Tat peptide is shown as sticks. B. Phosphorylated Ser 6 residue binds to the active site of PP1. Comparative superimposition of pRb-Tat peptide over the crystal structure of MES bound in the active site of PP1. Catalytic resides are shown as sticks. MES is shown as green sticks, and the phosphorylated Ser6 residue of pRb-Tat peptide is shown as orange sticks. The pRb-Tat peptide is shown as orange ribbon. C. 1H4 inhibits kinetics of pRb-Tat peptide dephosphorylation by PP1α. Recombinant PP1α was assayed with pRb-Tat (WT or QACA mutant, 120 µM) in the absence or presence of 1H4 as indicated. The reactions were stopped at indicated time points and the phosphate release was quantified by malachite green assay. Initial velocity was calculated by linear regression in Prism. D. 1H4 inhibits kinetics of pRb-cdNIPP dephosphorylation by PP1α. Recombinant PP1α was assayed with pRb-cdNIPP1 in the absence or presence of 1H4 as indicated. Mutant pRb cdNIPP1 pA-RATA was used as negative control. The reactions were stopped at indicated time points and the phosphate release was quantified by malachite green assay. Initial velocity was calculated by linear regression in Prism. […] Initial rates of pRb-Tat peptide dephosphorylation by PP1α were assayed at the indicated concentrations of the substrate in the absence or presence of 300 µM 1H4 or non-HIV-1 inhibitory 1G3. The amount of the released phosphate was quantified with malachite green.\nMalachite green dephosphorylation assays were carried out with the Ser/Thr phosphatase assay kit (Upstate, Lake Placid, NY) using recombinant PP1α (New England Biolabs, Ipswich, MA). […]"}, "CMV promoter": {"test_system": "CMV promoter", "assay": "Control CMV promoter transcription (CMV-EGFP) in 293T cells", "settings": "10 µM"}, "HIV-1 NL4-3": {"test_system": "HIV-1 NL4-3", "assay": "HIV-1 replication in MT4 cells, reverse transcriptase activity", "settings": "HIV-1 NL4-3, tested at 2, 10, 25 µM, RT activity over 8 days"}},
  "note": "Values joined by “and” are separate entries in the source; they are usually repeats but may differ in a detail not shown here. Equal entries are not always repeated.",
  "data": [
    {"smiles": "COCCNC(=O)COC(=O)c1c2c(nc3ccccc13)/C(=C/c1ccc(O)cc1)CCC2", "note": "[1H4]", "values": [
      {"measurement": "IC50", "setting": "CEM cells", "value": "> 25", "unit": "µM"},
      {"measurement": "Effect on and mode of inhibition of pRb-Tat dephosphorylation by PP1α", "setting": "recombinant PP1α; 300 µM compound, Lineweaver-Burk plot", "value": "competitive"},
      {"measurement": "pRB-Tat VMAX", "setting": "recombinant PP1α; 300 µM compound, control 16.67, 25% of substrate assumed phosphorylated", "value": 18.20},
      {"measurement": "V0 of pRb-cdNIPP1 dephosphorylation by PP1α in presence of compound", "setting": "recombinant PP1α; 1H4 added", "value": "0.37 µM·min^-1 and 0.37 ± 0.01 µM·min^-1"},
      {"measurement": "V0 of pRb-Tat dephosphorylation by PP1α in presence of compound", "setting": "recombinant PP1α; 1H4 at 3-fold molar excess (480 µM) over pRb-Tat (160 µM)", "value": "0.19 µM·min^-1 and 0.19 ± 0.01 µM·min^-1"},
      {"measurement": "Effect on transcription from control CMV promoter", "setting": "CMV promoter", "value": "did not inhibit transcription from a control CMV promoter"},
      {"measurement": "Concentration from which HIV-1 replication is inhibited", "setting": "HIV-1 NL4-3", "value": "≥ 10", "unit": "µM"}
    ]}
  ]
}
